Reference: patent US20050107289A1, “Anti-microbial peptides and compositions” (priority 2001, published 2005)
Where a name gives a salt, the structure may show the parent alone. Non-standard residues stand in square brackets, D forms with d. Residues, ends and D or L forms follow the SMILES beside them.

Experiments:
[1] = tested on: E. faecium SP180; assay: microbe, parasite or virus in culture; format: cell-based, Enterococcus faecium; conditions: SP180
Description: (§1) The antimicrobial activity of the peptides was determined using a broth dilution assay essentially as descried in the guidelines of the National Committee for […] (NCCLS) [National Committee for Clinical Laboratory Standards. Methods for dilution antimicrobial susceptibility tests for bacteria that grow aerobically. Fourth edition. Approved Standard (1997). Document M7-A4. […] The microdilution method has the advantages of requiring less amount of peptide for each assay and the possibility of multiple simultaneous inoculations and was used in most studies. Several of the strains of bacteria tested are further described in Table 3.
(§2) Preparation of peptide solutions. Stock peptide solutions were prepared in 5% DMSO in aq. sucrose (9%). Determination of peptide concentrations was done by quantitative HPLC analysis using known concentrations of internal standards and/or by measuring UV absorption of tryptophane-containing peptide solutions in H2O (λ=280 εTrp: 5690). Serial 2-fold dilutions were made in the above DMSO/aq. sucrose (9%) mixture with concentrations ranging approximately 400-2 μg/ml and aliquots were dispensed in test tubes (100 μl) for the macrodilution test or in microtiter plates (20 μl) for the microdilution assays.
(§3) Inoculum preparation. Overnight cultures of different microorganisms grown in suitable media were diluted 4000 times to an approximate inoculum size of 2.5×10^5 cfu/ml.
(§4) Macrodilution method. Macrodilution methods were performed using procedures similar to those described in the National Committee for Clinical Laboratory Standards. Methods for dilution antimicrobial susceptibility tests for bacteria that grow aerobically. Fourth edition. Approved Standard (1997). Document M7-A4. (NCCLS,Villanova, Pa., 1997). Two ml aliquots of the above inoculum were dispensed to test tubes containing different peptide solutions.
(§5) Microdilution method. Microdilution methods were performed using procedures similar to those described in the National Committee for Clinical Laboratory Standards. Methods for dilution antimicrobial susceptibility tests for bacteria that grow aerobically. Fourth edition. Approved Standard (1997). Document M7-A4.

[2] = tested on: S. aureus ATCC 33592; assay: microbe, parasite or virus in culture; format: cell-based, Staphylococcus aureus; conditions: ATCC 33592
Description: as §1, §2, §3, §4, §5

[3] = tested on: E. coli (K12); assay: microbe, parasite or virus in culture; format: cell-based, Escherichia coli; conditions: K12
Description: as §1, §2, §3, §4, §5

[4] = tested on: E. coli (EL744) K12 (tolC::kan); assay: microbe, parasite or virus in culture; format: cell-based, Escherichia coli; conditions: MHII broth
Description: as §1, §2, §3, §4, §5

[5] = tested on: H. influenzae ATCC 49247; assay: microbe, parasite or virus in culture; format: cell-based, Hemophilus influenzae; conditions: ATCC 49247
Description: as §1, §2, §3, §4, §5

[6] = tested on: E. faecalis ATCC 51299; assay: microbe, parasite or virus in culture; format: cell-based, Enterococcus faecalis; conditions: ATCC 51299
Description: as §1, §2, §3, §4, §5

[7] = tested on: S. aureus (MRSA) ATCC 33591; format: cell-based, Staphylococcus aureus; conditions: Table 9; media b: cation adjusted Meuller Hinton broth (MHBII)
In short: (§6)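 MICs come from NCCLS-style (M7-A4) dilution testing, mostly microdilution, with an inoculum near 2.5×10^5 cfu/ml from 4000-fold-diluted overnight cultures. Peptide series were 2-fold steps spanning roughly 400–2 μg/ml, prepared in 9% aqueous sucrose with 5% DMSO.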

[8] = tested on: vancomycin-resistant Enterococus faecalis (VRE)(ATCC 51575); format: cell-based, Enterococcus faecalis; parameters: key to VRE (in vitro activity): peptide concentration in μg/ml (broth dilution assay); conditions: Table 9; media c: Brain Heart Infusion (BHI)
In short: as §6

[9] = tested on: murine red blood cells; assay: Red blood cell hemolysis; format: cell-based, mouse
In short: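 Washed murine erythrocytes at 5% in saline with 10% FBS were exposed to serial peptide dilutions for 30 min at 37° C. Supernatant absorbance at 560 nm was read, with saline as 0% and 1% Triton X-100 as 100% hemolysis.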

[10] = Single channel conductance in planar lipid membranes; conditions: for rate of channel mediated K+ transport / observed conductance: 500 mM KCl; for observed conductance: peptide about 30 mM in the subphase; for transport speed relative to gramicidin A: similar conditions
Description: The ion transport properties of tetrapeptides cyclo[(β-Trp)4] and cyclo[(β-Trp-β-Leu)2], synthesized via established protocols, were studied in liposome-based assays and by single channel conductance measurements in planar lipid membranes. The observed conductance in 500 mM KCl with peptide concentrations of about […] in the subphase is 56 pS, corresponding to the rates of channel mediated K^+ transport of 1.9×10^7 ions s^−1 for both tetrapeptides.

Compound | E. faecium SP180 MIC [1] | S. aureus ATCC 33592 MIC [2] | E. coli (K12) MIC [3] | E. coli (EL744) K12 (tolC::kan) MIC [4] | H. influenzae ATCC 49247 MIC [5] | E. faecalis ATCC 51299 MIC [6] | MRSA (in vitro activity) [7] | VRE (in vitro activity) [8] | RBC Hemolysis (HD50) [9] | rate of channel mediated K+ transport [10] | observed conductance [10] | transport speed relative to gramicidin A [10]
CC(C)C[C@H]1NC(=O)[C@H](CCCCN)NC(=O)[C@@H](CCCCN)NC(=O)[C@H](Cc2c[nH]c3ccccc23)NC(=O)[C@@H](CC(C)C)NC(=O)[C@H](Cc2c[nH]c3ccccc23)NC1=O [[KKLWLW]-HCl, cyclo-(D-Lys-Lys-D-Leu-Trp-D-Leu-Trp)] (cyclo(K[dL]W[dL]W[dK])) | 16 µg/mL | 32 µg/mL | >128 µg/mL | 32 µg/mL | >128 µg/mL | >128 µg/mL |  |  |  |  |  | 
CC(C)C[C@H]1NC(=O)[C@H](Cc2c[nH]c3ccccc23)NC(=O)[C@@H](CCCCN)NC(=O)[C@H](CO)NC(=O)[C@@H](CCCCN)NC(=O)[C@H](Cc2c[nH]c3ccccc23)NC(=O)[C@@H](CC(C)C)NC(=O)[C@H](Cc2c[nH]c3ccccc23)NC1=O [[KSKWLWLW]-HCl, D-Lys-Ser-D-Lys-Trp-D-Leu-Trp-D-Leu-Trp] (cyclo([dK]S[dK]W[dL]W[dL]W)) | 4 µg/mL | 4 µg/mL |  |  | 32 µg/mL | 8 µg/mL | 9 | 9 | 60 |  |  | 
CC(C)C[C@H]1NC(=O)[C@H](Cc2c[nH]c3ccccc23)NC(=O)[C@@H](CCCCN)NC(=O)[C@H](CCCNC(=N)N)NC(=O)[C@@H](CCCNC(=N)N)NC(=O)[C@H](Cc2c[nH]c3ccccc23)NC(=O)[C@@H](CC(C)C)NC(=O)[C@H](Cc2c[nH]c3ccccc23)NC1=O [[RRKWLWLW]-HCl, cyclo-(D-Arg-Arg-D-Lys-Trp-D-Leu-Trp-D-Leu-Trp)] (cyclo([dR]R[dK]W[dL]W[dL]W)) | 4 µg/mL | 8 µg/mL | 32 µg/mL |  | 32 to 64 µg/mL | 8 to 16 µg/mL | 9 | 9 | 70 |  |  | 
cyclo[(β-Trp)4] |  |  |  |  |  |  |  |  |  | 1.9×10^7 ions s^−1 | 56 pS | more than twice
cyclo[(β-Trp-β-Leu)2] |  |  |  |  |  |  |  |  |  | 1.9×10^7 ions s^−1 | 56 pS | more than twice
